What was measured:
HIV-1 integrase = biological target: T1, HIV-1 integrase (Human immunodeficiency virus type 1 group M subtype B, UniProt P04585); assay: HIV Integrase Substrate Cleavage (trimming of the 3' end of HIV long terminal repeat terminus by HIV-1 integrase); format: biochemical; conditions: inhibition of HIV integrase substrate cleavage; inhibitor 0.75 to 100 μM
T1 construct: HIV long terminal repeat terminus by HIV-1 integrase
Procedure: HIV Integrase Substrate Cleavage
An assay for trimming of the 3' and of HIV long terminal repeat terminus by HIV-1 integrase was conducted according to LaFemina, R. L. et al., J. Virol 10, 5624 (1991), herein incorporated by reference for these purposes. To assay inhibition of HIV integrase substrate cleavage, the reaction was conducted with inhibitor having various concentrations in the range of 0.75 to 100 μM.

HIV integrase = HIV integrase (Human immunodeficiency virus type 1 group M subtype B, UniProt P04585); assay: Strand Transfer Assay for HIV Integrase (microtiter assay for ligation of processed donor (HIV) DNA to unspecific, nicked host DNA); format: biochemical; conditions: inhibition of strand transfer by HIV integrase; inhibitor 0.75 to 100 μM
Procedure: Strand Transfer Assay for HIV Integrase
A microtiter assay for ligation of processed donor (HIV) DNA to unspecific, nicked host DNA was conducted according to Hazuda, D. J. et al., Nucl. Acids, Res. 22, 1121 (1994), herein incorporated by reference for these purposes. To assay inhibition of such strand transfer by HIV integrase, the reaction was conducted with inhibition having various concentrations in the range of 0.75 to 100 μM. Representative results follow.

Compound	IC50 (HIV-1 integrase) [µM]	IC50 (HIV integrase) [µM]
COc1cc(OC)c2c(OC)c3c(cc2c1-c1c(OC)cc(OC)c2c(OC)c4c(cc12)OC(C)C(C)C4=O)OC(C)C(C)C3=O (stereo not drawn) [Compound G]	60	
CC(=O)Oc1cc(OC(C)=O)c2c(OC(C)=O)c3c(cc2c1-c1c(OC(C)=O)cc(OC(C)=O)c2c(OC(C)=O)c4c(cc12)OC(C)C(C)C4=O)OC(C)C(C)C3=O (stereo not drawn) [E]	50	
CC1Oc2cc3c(-c4c(O)cc(O)c5c(O)c6c(cc45)OC(C)C(C)C6=O)c(O)cc(O)c3c(O)c2C(=O)C1C (stereo not drawn) [Compound A]	2	12
Cc1oc2cc3c(-c4c(O)cc(O)c5c(O)c6c(cc45)O[C@@H](C)[C@@H](C)C6=O)c(O)cc(O)c3c(O)c2c(=O)c1C (relative stereo) [Compound D]	1	4
CC1Oc2cc3c(-c4c(O)cc(O)c5c(O)c6c(cc45)OC(C)C(C)C6=O)c(O)cc(O)c3c(O)c2OC(=O)C1C (single isomer, unassigned) [Compound C]	3	9
COc1cc(O)c2c(OC)c3c(cc2c1-c1c(OC)cc(OC)c2c(OC)c4c(cc12)OC(C)C(C)C4=O)OC(C)C(C)C3=O (stereo not drawn) [Compound F]	40	

Source: patent US6110716A, “HIV integrase inhibitors” (Merck & Co., Inc., priority 1998, dated 2000)
